Measurements taken from patent US20160052923A1, “PIPERAZINE AND HOMOPIPERAZINE DERIVATIVES AS HIV […]” (priority 2013, published 2016).
Like-named read-outs stand apart in the source and are kept apart here.

Test system: HIV-1 LAI envelope single-round infectious reporter virus
Assay: Single-round infectious HIV-1 LAI luciferase reporter virus infection of MT2 cells
Type: cell-based
Conditions: Human immunodeficiency virus 1, MT2, 72 h
Excerpt: • Virus production—Human embryonic Kidney cell line, 293T (HEK 293T), was propagated in Dulbecco's Modified Eagle Medium (Invitrogen, Carlsbad, Calif.) containing 10% fetal bovine serum (FBS, Sigma, St. Louis, Mo.). The human T-cell leukemia cell MT2 (AIDS Research and Reference Reagent Program, Cat. 237) was propagated in RPMI 1640 (Invitrogen, Carlsbad, Calif.) containing 10% fetal bovine serum (FBS, Hyclone, Logan, Utah) • Virus infection—Single-round infectious reporter virus was produced by co-transfecting HEK 293T cells with plasmide expressing the HIV-1 LAI envelope along with a plasmid containing an HIV-1 LAI proviral cDNA with the envelope gene replaced by a firefly luciferase reporter gene (Chen et al., Ref. 41). Transfections were performed using lipofectAMINE PLUS reagent as described by the manufacturer (Invitrogen, Carlsbad, Calif.).
• 1. MT2 cells were plated in black, 384 well plates at a cell density of 5×10^3 cells per well in 25 μl RPMI 1640 containing 10% FBS. • 2. Compound (diluted in dimethylsulfoxide and growth medium) was added to cells at 12.5 μl/well, so that the final assay concentration would be ≦50 nM. • 3. 12.5 μl of single-round infectious reporter virus in Dulbecco's Modified Eagle Medium was added to the plated cells and compound at an approximate multiplicity of infection (MOI) of 0.01, resulting in a final volume of 50 μl per well. • 4. Virus-infected cells were incubated at 37 degrees Celsius in a CO2 incubator and harvested 72 h after infection. • 5. Viral infection was monitored by measuring luciferase expression in the infected cells using a luciferase reporter gene assay kit (Steady-Glo, Promega, Madison, Wis.) as described by the manufacturer. Luciferase activity was then quantified by measuring luminescence using an EnVision Multilabel Plate Readers (PerkinElmer, Waltham, Mass.). • 6. The percent inhibition for each compound was calculated by quantifying the level of luciferase expression in cells infected in the presence of each compound as a percentage of that observed for cells infected in the absence of compound and subtracting such a determined value from 100. • 7. An EC50 provides a method for comparing the antiviral potency of the compounds of the invention. The effective concentration for fifty percent inhibition (EC50) was calculated with the Microsoft Excel Xlfit curve fitting software. For each compound, curves were generated from percent inhibition calculated at 10 different concentrations by using a four parameter logistic model (model 205). Table 1 is the key for the data in Table 2.

[1] = read-out: EC50 Group from Table 1

Structure (SMILES)	EC50	EC50 [1]
COc1cnc(-n2cnc(C)n2)c2[nH]cc(C(=O)C(=O)N3CCN(C4=NCCc5ccccc54)CC3)c12 [Compound 1001]	0.85 nM	< 500 nM
COc1cnc(-n2cnc(C)n2)c2[nH]cc(C(=O)C(=O)N3CCN(C4(c5ccccc5)CC4)CC3)c12 [Compound 1002]	–	> 500 nM
COc1cnc(-n2cnc(C)n2)c2[nH]cc(C(=O)C(=O)N3CCN(C4(c5ccccn5)CC4)CC3)c12 [Compound 1003]	–	> 500 nM
COc1cnc(-n2cnc(C(N)=O)n2)c2[nH]cc(C(=O)C(=O)N3CCN(c4nc5ccccn5n4)CC3)c12 [Compound 1004]	–	< 500 nM
CC(c1ccccc1)N1CCN(C(=O)C(=O)c2c[nH]c3c(-n4ccnn4)ncc(F)c23)CC1 (stereo not shown) [Compound 1005]	–	< 500 nM
O=C(C(=O)N1CCN(Cc2ccccn2)CC1)c1c[nH]c2c(-n3ccnn3)ncc(F)c12 [Compound 1006]	–	< 500 nM
O=C(C(=O)N1CCCN(Cc2ccccc2)CC1)c1c[nH]c2c(-n3ccnn3)ncc(F)c12 [Compound 1007]	–	< 500 nM
O=C(C(=O)N1CCCN(c2ccccn2)CC1)c1c[nH]c2c(-n3ccnn3)ncc(F)c12 [Compound 1008]	89.4 nM	< 500 nM
O=C(C(=O)N1CCCN(c2nnnn2-c2ccccc2)CC1)c1c[nH]c2c(-n3ccnn3)ncc(F)c12 [Compound 1009]	–	< 500 nM
COc1cnc(-n2cnc(C)n2)c2[nH]cc(C(=O)C(=O)N3CCN(c4ccccc4-c4nc5ccccc5s4)CC3)c12 [Compound 1010]	–	< 500 nM
O=C(C(=O)N1CCN(c2cccc3ccccc23)CC1)c1c[nH]c2c(-n3ccnn3)ncc(F)c12 [Compound 2001]	2.97 nM	< 500 nM
COc1cnc(-n2cnc(C)n2)c2[nH]cc(C(=O)C(=O)N3CCN(c4nccc5cccnc45)CC3)c12 [Compound 2002]	–	< 500 nM
COc1cnc(-n2cnc(C)n2)c2[nH]cc(C(=O)C(=O)N3CCN(c4cccc5ccncc45)CC3)c12 [Compound 2003]	–	< 500 nM
O=C(C(=O)N1CCN(c2cccc3cccnc23)CC1)c1c[nH]c2c(-n3ccnn3)ncc(F)c12 [Compound 2004]	–	< 500 nM
COc1cnc(-n2cnc(C)n2)c2[nH]cc(C(=O)C(=O)N3CCN(c4cccc5cccnc45)CC3)c12 [Compound 2005]	–	< 500 nM
COc1cnc(-n2cnc(C)n2)c2[nH]cc(C(=O)C(=O)N3CCN(c4ncnc5ncccc45)CC3)c12 [Compound 2006]	–	< 500 nM
COc1cnc(-n2ccnn2)c2[nH]cc(C(=O)C(=O)N3CCN(c4ncnc5ncccc45)CC3)c12 [Compound 2007]	–	< 500 nM
O=C(C(=O)N1CCN(c2ncnc3ncccc23)CC1)c1c[nH]c2c(-n3ccnn3)ncc(F)c12 [Compound 2008]	1.24 nM	< 500 nM
